# Laboratory results from patent US10603298B2, “Succinate dehydrogenase inhibitors (SDHi's)” (Medical Research Council, priority 2014, dated 2020).
# How the values were obtained:
# [1] = system: mouse heart IR injury (myocardial infarction); experiment: In vivo mouse cardiac IR injury (LAD ligation), infarct size by triphenyltetrazolium chloride staining; conditions: i.v. infusion 4 mg/kg/min prior to and throughout ischaemia
# Procedure: For the in vivo heart IR model an open-chest, in situ heart model was used^31,32. Male mice (8-10 weeks; Charles River Laboratories, UK) were anaesthetised with sodium pentobarbital (70 mg/kg intraperitoneally (i.p.)), intubated endotracheally and ventilated with 3 cm H2O positive-end expiratory pressure. Adequacy of anaesthesia was monitored using corneal and withdrawal reflexes. Ventilation frequency was kept at 110 breaths per minute with tidal volume between 125-150 μL. A thoracotomy was performed and the heart exposed by stripping the pericardium. A prominent branch of the left anterior descending coronary artery (LAD) was surrounded by a 7-0 Prolene suture that was then passed through a small plastic tube. Ischaemia was induced by tightening the tubing against the heart surface. To assess metabolites during IR in vivo, mice were divided into three groups: 30 min ischaemia, 30 min ischaemia plus 5 min reperfusion and 30 min sham-operation in which the suture was placed but the LAD was not occluded. At the end of each protocol tissue was removed from the at risk and peripheral areas of the heart, selected visually by comparing white versus red tissue, and snap-frozen in liquid nitrogen. […] Infarct size was assessed after 30 min of ischaemia followed by 120 min reperfusion using 2% triphenyltetrazolium chloride staining and is expressed as a percentage of the risk zone^33. […]
# [2] = system: adult primary rat cardiomyocytes; experiment: Mitochondrial membrane potential (TMRM) in primary cardiomyocytes during in situ IR; format: cell-based; conditions: 4 mM in ischaemic buffer
# Procedure: FIG. 15: Tracking mitochondrial membrane potential in primary cardiomyocytes during in situ IR. Primary rat cardiomyocytes were subjected to 40 min ischaemia and reoxygenation and mitochondrial membrane potential was tracked throughout the experiment by measurement of tetramethylrhoadmine (TMRM) fluorescence. […] Average traces from at least three replicate experiments are shown. (a) TMRM signal throughout the entire experiment.
# Male Sprague-Dawley rats (300-370 g) were terminally anaesthetised via IP injections of 200 mg/kg sodium pentobarbitone and 330 U/kg heparin. Hearts were excised and retrograde perfused on a Langendorff-perfusion system with 13 mL/min oxygenated KH buffer at 37° C. […]
# Cells were imaged within 36 hours of plating. […] Simulated ischaemia was achieved by replacing the buffer with a pre-gassed, hypoxic recording buffer simulating ischaemia (as above but lacking glucose and containing 10 mM sodium lactate, 14.8 mM KCl; pH 6.4) and by covering the heated stage with a transparent, gas-impermeant lid, forming a small chamber into which argon was forced to maintain hypoxia. pO2 was routinely measured as <2.0 mm Hg during simulated ischaemia. […]
# Mitochondrial membrane potential was measured using tetramethylrhodamine, methyl ester (TMRM, Life Technologies) in dequench mode. […] TMRM fluorescence was excited at 543 nm and emission was collected using a LP 560 filter.
# [3] = Malonate level in the ischaemic myocardium after i.v. dimethyl malonate (LC-MS); parameters: species or system mouse; conditions: intravenous infusion of dimethyl malonate in vivo
# Procedure: In addition, as shown in FIG. 5a the cell permeability of the compound may be determined by comparing the level of the compound in an untreated cell with that of a treated cell. Typically, the level of the compound may be determined using LC/MS as detailed in the metabolomic analysis in the Examples.
# Infarct size was assessed after 30 min of ischaemia followed by 120 min reperfusion using 2% triphenyltetrazolium chloride staining and is expressed as a percentage of the risk zone^33. […] Control mice were infused with sterile saline. The total volume administered never exceeded 200 μL/mouse.
# Equal amounts wet weight murine tissue were lysed in 250 μL extraction solution (ES; 30% acetonitrile, 50% methanol and 20% water) per 10 mg tissue in Precellysis 24 vials, following the manufacturer's instructions. […] For the LC separation, column A was Sequant Zic-Hilic (150 mm×4.6 mm, internal diameter 3.5 μm) with a guard column (20 mm×2.1 mm 3.5 μm) from HiChrom, Reading, UK. […] Gradient: 0-3 min 80% B, 25 min 20% B, 26 min 80% B, 36 min 80% B. Column B was sequant Zic-pHilic (150 mm×2.1 mm i.d. 3.5 μm) with guard column (20 mm×2.1 mm i.d. […]) from HiChrom, Reading, UK. […] Spectra were analysed using both targeted and untargeted approaches. […] The arrays of spectra were then statistically analysed using the functions explore.data and univariate of the R package mum a^40.
smiles,measurement,setting,value
COC(=O)CC(=O)OC [dimethyl malonate],protection against cardiac IR injury (infarct size),[1],protective
same,rate of mitochondrial polarisation upon reperfusion,[2],diminished the rate of mitochondrial polarisation upon reperfusion
same,accumulation of malonate in the ischaemic myocardium,[3],results in accumulation of malonate
